Columns and labels:
alloxan diabetes = experiment: Alloxan diabetes, blood glucose level (glucose oxidase method); type: in vivo, rats; settings: 250 nM SkQ1 in drinking water (approx. 50 nmol/kg per day) 10 d before and 14 d after alloxan 100 mg/kg s.c.; 2 weeks after alloxan
Protocol: Induction of the alloxan diabetes was performed as follows: Two groups of laboratory rats (20 animals in each group) with free food and water access fed a 250 nM solution of SkQ1 for 10 d. The daily rat consumption was 60 ml water solution (containing 15 nmoles SkQ1). The average weight of rats was 300 g. Thus, rats consumed approximately 50 nmol/kg body weight per day. […] After 10 d, rats were subcutaneously (in the area of the thigh) injected with alloxan dissolved in isotonic salt solution of 0.9% w/v of NaCl (100 mg/kg body weight; groups “Alloxan+SkQ1” and “Alloxan.” Control animals were injected with salt solution without alloxan (groups “Control+SkQ1” and “Control”). After injection, the rats continued to drink water containing SkQ1 (250 nM) during 14 d (group “Alloxan+SkQ1”) or were kept without SkQ1 (group “Alloxan”). Data on glucose blood level was measured by the glucose oxidase method ([…] et al. (1958) J. Lab. Clin. Med., 51:445-460) after 2 weeks of alloxan injection. All data are presented as the mean+/-SE.

LPS-induced septic shock = experiment: LPS/D-GalN-induced septic shock, survival; type: in vivo, BALB/c mice
Protocol: Induction of the septic shock was performed as follows: 43 male BALB/c mice with free food and water access were divided onto 4 experimental groups. Group “K” got water without drugs. Groups “SkQ 50,” “SkQ 250,” and “SkQ 1250” were daily parenterally treated with pharmaceutical form of SkQ1 in water comprising 50 nmol/kg, 250 nmol/kg, and 1250 nmol/kg accordingly. After 3 weeks of SkQ1 treatment animals were intraperitonially injected with […] LPS and 700 mg/kg D-galactosamine (D-GalN) inducing septic shock leading to death of 50% of untreated control animals (LD50 dose). Death of animals were registered after 4 d of septic shock induction.

With `CC1=C(C)C(=O)C(CCCCCCCCCC[P+](c2ccccc2)(c2ccccc2)c2ccccc2)=CC1=O` [SkQ1] the “blood glucose, lower compared to animals without SkQ1 treatment” value (alloxan diabetes) was “about 2 fold”, the “survival of mice following LPS/D-GalN treatment” value (LPS-induced septic shock; SkQ1 in water 50, 250, 1250 nmol/kg daily parenterally for 3 weeks, death registered after 4 d) was “significantly improved” and the “survival, significance of the effect” value (LPS-induced septic shock; dose of 50 nmol/kg, p=0.03) was “statistically significant effect”.
